Measurements published in ChEMBL document CHEMBL2346658, “8,8-dialkyldihydroberberines with potent antiprotozoal activity” (J Nat Prod, 2013).
Where a name gives a salt, the structure may show the parent alone. Calls of active or inactive are those of the source. The calls are words filed in the database; no cut-off is given here.

Assays:
[1] = Binding affinity to poly(dA.dT) DNA (unknown origin) assessed as change in melting temperature
[2] = system: Trypanosoma brucei rhodesiense; experiment: Antitrypanosomal activity against Trypanosoma brucei rhodesiense STIB900 infected in NMRI mouse assessed as infection cure rate at 1 mg/kg/day for 4 days starting from 3 to 6 days post-infection measured on day 10; assay type: functional, organism-based
[3] = system: Trypanosoma brucei rhodesiense; experiment: Antitrypanosomal activity against Trypanosoma brucei rhodesiense STIB900 infected in NMRI mouse assessed as infection cure rate at 1 mg/kg/day for 4 days starting from 3 to 6 days post-infection measured on day 7; assay type: functional, organism-based
[4] = Selectivity index, ratio of IC50 for african green monkey Vero cells to IC50 for erythrocyte stage Plasmodium falciparum 3D7; assay type: toxicity, cell-based; details: read-out: Ratio IC50
[5] = Selectivity index, ratio of IC50 for african green monkey Vero cells to IC50 for Leishmania donovani; assay type: toxicity, cell-based; details: read-out: Ratio IC50
[6] = Selectivity index, ratio of IC50 for african green monkey Vero cells to IC50 for Trypanosoma brucei brucei blood-stream forms; assay type: toxicity, cell-based; details: read-out: Ratio IC50
Leishmania donovani [7] = experiment: Potency index, ratio of IC50 for chloroquine to IC50 for compound against Leishmania donovani; assay type: functional
Vero = experiment: Cytotoxicity against african green monkey Vero cells; assay type: cell-based; details: Chlorocebus sabaeus
[8] = system: Trypanosoma brucei brucei; experiment: Antitrypanosomal activity against Trypanosoma brucei brucei blood-stream forms; assay type: functional, organism-based
Leishmania donovani [9] = experiment: Antileishmanial activity against Leishmania donovani; assay type: functional, organism-based
Plasmodium falciparum = experiment: Antimalarial activity against erythrocyte stage Plasmodium falciparum 3D7; assay type: functional, organism-based
[10] = system: Trypanosoma brucei rhodesiense; experiment: Antitrypanosomal activity against Trypanosoma brucei rhodesiense STIB900 infected in NMRI mouse assessed as infection cure rate at 10 mg/kg/day for 4 days starting from 3 to 6 days post-infection measured on day 10; assay type: functional, organism-based
[11] = system: Trypanosoma brucei rhodesiense; experiment: Antitrypanosomal activity against Trypanosoma brucei rhodesiense STIB900 infected in NMRI mouse assessed as infection cure rate at 10 mg/kg/day for 4 days starting from 3 to 6 days post-infection measured on day 7; assay type: functional, organism-based
Mus musculus = experiment: Toxicity in BALB/c mouse assessed as induction of overt toxicity at 10 mg/kg/day, ip for 5 days; assay type: organism-based; parameters: route intraperitoneal; details: in vivo, 120 h
Leishmania donovani [12] = experiment: Antileishmanial activity against Leishmania donovani LV82 infected in BALB/c mouse model of visceral leishmaniasis assessed as inhibition of liver parasitemia at 10 mg/kg/day, ip for 5 days starting 7 days post-infection; assay type: functional; details: route intraperitoneal

Row | Compound | ΔTm [1] [°C] | IC50 (Vero) [nM] | IC50 [8] [nM] | IC50 (Leishmania donovani [9]) [nM] | IC50 (Plasmodium falciparum) [nM] | inhibition in vivo at 10 mg/kg/day (Leishmania donovani [12]) [%] | further results
1 | CCC1(CC)c2c(ccc(OC)c2OC)C(=O)c2c3cc4c(cc3cc[n+]21)OCO4.[Cl-] | 0.5 | 39000 | 2 | 290 | 20 |  | Activity [2]: inactive; Activity [3]: Active; selectivity ratio [4]: > 600; selectivity ratio [5]: > 100; selectivity ratio [6]: 3000; Ratio IC50 (Leishmania donovani [7]): 4
2 | CCC1(CC)c2c(ccc(OC)c2OC)CC2c3cc4c(cc3CCN21)OCO4 (stereo unspecified) [8,8-DIETHYLCANADINE] |  |  | 230 | 8900 | 1700 |  | 
3 | COc1ccc2c(c1OC)C(C)(C)N1CCc3cc4c(cc3C1C2)OCO4 (stereo unspecified) [8,8-DIMETHYLCANADINE] |  |  | 52000 | 7300 | 7300 |  | 
4 | CCC1(CC)c2c(ccc(OC)c2OC)CC2=[N+]1CCc1cc3c(cc12)OCO3.[Cl-] [8,8-Diethyldihydroberberine] | 0.5 | 18000 | 5.3 | 100 | 77 | 29 | Activity [10]: inactive; Activity [11]: Active; Activity (Mus musculus): Non-toxic; selectivity ratio [5]: > 100; selectivity ratio [6]: 3000
5 | CCCC1(CCC)c2c(ccc(OC)c2OC)CC2=[N+]1CCc1cc3c(cc12)OCO3.[Cl-] [8,8-Dipropyldihydroberberine] | 0 | 19000 | 53 | 550 | 30 | 32 | Activity (Mus musculus): Non-toxic; selectivity ratio [4]: > 600; Ratio IC50 (Leishmania donovani [7]): 4
6 | COc1ccc2c(c1OC)C(C)(C)[N+]1=C(C2)c2cc3c(cc2CC1)OCO3.[Cl-] [8,8-dimethyldihydroberberine] | 0.3 | 8800 | 4600 | 200 | 63 | 46 | Activity (Mus musculus): Non-toxic
7 | C[C@@H]1[C@H](O)[C@@H](C)/C=C/C=C/C=C/C=C/C=C/C=C/C=C/[C@H](O[C@@H]2O[C@H](C)[C@@H](O)[C@H](N)[C@@H]2O)C[C@@H]2O[C@](O)(C[C@@H](O)C[C@@H](O)[C@H](O)CC[C@@H](O)C[C@@H](O)CC(=O)O[C@H]1C)C[C@H](O)[C@H]2C(=O)O [AMPHOTERICIN B] |  |  |  | 46 |  |  | 
8 | COc1ccc2cc3[n+](cc2c1OC)CCc1cc2c(cc1-3)OCO2 [BERBERINE SULFATE] | 3.5 | > 200000 |  | 17000 |  |  | 
9 | CCCCCCCCCCCCCCCCOP(=O)([O-])OCC[N+](C)(C)C [MILTEFOSINE] |  |  |  |  |  | 97 | 
10 | COc1cc([C@@H]2c3cc4c(cc3[C@H](O)[C@H]3COC(=O)[C@H]23)OCO4)cc(OC)c1OC [PODOFILOX] |  | 17 |  |  |  |  | 
11 | Cc1ccc(C(=O)Nc2ccc(S(=O)(=O)O)c3cc(S(=O)(=O)O)cc(S(=O)(=O)O)c23)cc1NC(=O)c1cccc(NC(=O)Nc2cccc(C(=O)Nc3cc(C(=O)Nc4ccc(S(=O)(=O)O)c5cc(S(=O)(=O)O)cc(S(=O)(=O)O)c45)ccc3C)c2)c1 [SURAMIN] |  |  | 130 |  |  |  | 
